Data from US20130217694A1, “METHOD OF REDUCING THE SEVERITY OF INFLAMMATORY DERMATOLOGICAL CONDITIONS” (Allergan, Inc.., priority 2003, published 2013).

Columns and labels:
[1] = tested on: mice; assay: Sulprostone-induced tactile hypersensitivity in mice; format: in vivo, mouse; details: for analgesic activity in sulprostone-induced tactile hypersensitivity: result in words; for tactile (mechanical) hypersensitivity score: Sulprostone (200 ng IT), cumulative score 0 to 16, mean ± SEM
Procedure: The activity of a synthetic EP1/EP3 receptor-selective prostaglandin agonist, sulprostone, also was assayed.
(§1) Spinal drug injections were performed as follows. […] Briefly, a sterile 30-gauge ½ inch needle attached to a microsyringe was inserted between the L5 and L6 vertebrae. The mouse was held firmly by the pelvic girdle in one hand, while the syringe was held in the other hand at an angle of approximately 20° above the vertebral column. The needle was inserted into the tissue to one side of the L6 spinous process, into the groove between the spinous and transverse processes. The needle angle was decreased to about 10°, and the needle slowly advanced forward into the intervertebral space until a pop was felt and there was a visible serpentine tail movement. Compounds were slowly injected in the subarachnoid space in a volume of 5 μl. Each compound was tested at multiple doses. The minimal efficacious dose was used for all subsequent experiments.
(§2) Sensitivity to light touch was quantified by scoring the response of mice to light stroking of their flanks with a small paintbrush, which is not normally painful. […] Statistical calculations of significance for in vivo studies were done using a two-tailed Students t-test.

[2] = target: T1, bovine α-1A adrenergic receptor (Bos taurus, UniProt P18130); assay: Intracellular Ca+2 response in HEK293 cells expressing bovine α-1A receptor; format: cell-based; details: for bovine α1A % E: percent efficacy relative to phenylephrine
T1 sequence (P18130 1-466): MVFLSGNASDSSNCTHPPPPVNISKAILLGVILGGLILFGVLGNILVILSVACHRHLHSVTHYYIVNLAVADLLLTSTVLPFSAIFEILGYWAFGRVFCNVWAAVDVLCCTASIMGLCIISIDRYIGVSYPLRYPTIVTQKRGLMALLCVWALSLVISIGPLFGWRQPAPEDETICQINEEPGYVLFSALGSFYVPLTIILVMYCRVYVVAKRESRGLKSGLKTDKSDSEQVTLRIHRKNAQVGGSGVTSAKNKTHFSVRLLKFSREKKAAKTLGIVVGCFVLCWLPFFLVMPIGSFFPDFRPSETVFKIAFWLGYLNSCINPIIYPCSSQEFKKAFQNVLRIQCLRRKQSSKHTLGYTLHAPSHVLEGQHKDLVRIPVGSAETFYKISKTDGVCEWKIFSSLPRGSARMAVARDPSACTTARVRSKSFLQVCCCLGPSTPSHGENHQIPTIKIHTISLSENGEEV
Procedure: (§3) The bovine α-1A and hamster α-1B receptor supernatants were added, in varying amounts, to naive HEK293 cells, which were then incubated for 48 hours. The transduced cell populations were replated at a lower density and grown in media containing 0.25 ug/ml puromycin. […] Receptor density was measured in a prazosin radioligand binding assay.
(§4) Intracellular Ca^+2 responses were measured as follows in HEK293 cells stably expressing either the bovine α-1A or hamster α-1B adrenergic receptor. Between 40,000 to 50,000 cells were plated per well in 96-well poly-D-lysine coated plates in 0.2 ml DMEM containing 10% heat-inactivated fetal calf serum, 1% antibiotic-antimycotic and 0.25 μg/ml puromycin one day prior to use. Cells were washed twice with HBSS supplemented with 10 mM HEPES, 2.0 mM CaCl2 and 2.5 mM probenicid, and subsequently incubated at 37° C. for 60 minutes with 4 μM Fluo-4 (Molecular Probes; Eugene, Oreg.). The extracellular dye was washed from the plates twice prior to placing the plates in the fluorometric imaging plate reader (FLIPR; Molecular Devices; Sunnyvale, Calif.). Ligands were diluted in HBSS and aliquoted into a 96-well microplate. Drugs were tested over the concentration range of 0.64 nM to 10,000 nM. Data for Ca^+2 responses were obtained in arbitrary fluorescence units.

[3] = target: T2, human α-2C receptor (Homo sapiens, UniProt P18825); assay: Inhibition of forskolin-induced cAMP accumulation in PC12 cells expressing human α-2C receptor; format: cell-based; details: percent efficacy relative to brimonidine
T2 construct: expressed in transfected cells; host or cells: PC12 cells (retroviral vector pCL BABE Puro)
T2 sequence (P18825 1-462): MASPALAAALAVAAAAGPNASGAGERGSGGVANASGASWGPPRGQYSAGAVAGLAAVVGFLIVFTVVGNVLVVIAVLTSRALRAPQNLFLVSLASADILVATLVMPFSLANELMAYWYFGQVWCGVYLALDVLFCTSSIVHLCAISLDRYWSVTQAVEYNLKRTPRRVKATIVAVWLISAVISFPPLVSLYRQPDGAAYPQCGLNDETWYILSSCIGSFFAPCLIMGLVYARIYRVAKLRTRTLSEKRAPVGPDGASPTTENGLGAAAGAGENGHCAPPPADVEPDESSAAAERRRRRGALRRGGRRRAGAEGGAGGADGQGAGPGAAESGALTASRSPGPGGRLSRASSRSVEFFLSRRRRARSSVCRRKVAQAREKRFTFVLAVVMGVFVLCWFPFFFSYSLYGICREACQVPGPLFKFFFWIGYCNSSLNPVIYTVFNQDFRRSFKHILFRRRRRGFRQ
Procedure: (§5) The human α-2A and α-2C receptor supernatants were added, in varying amounts, to naive PC12 cells, which were then incubated for 48 hours. The transduced cell populations were replated at a lower density and grown in media containing 100 ug/ml puromycin.
(§6) Intracellular cAMP measurement was performed as follows. PC12 cells stably expressing the human α-2A or human α-2C adrenergic receptors were plated in 96-well poly-D-lysine coated plates at a density of 30,000 cells per well in 100 μl DMEM supplemented with 10% horse serum, 5% heat inactivated fetal bovine serum, 1% antibiotic-antimycotic and 100 μg/ml puromycin. Cells were grown overnight at 37° C. and 5% CO2. Cells were dosed by adding an equal volume of media containing IBMX (to a final concentration of 1 mM), forskolin (to a final concentration of 10 μM) and the appropriate drug dilution (to a final concentration of between 10^−5 M and 10^−12 M). After a 10 minute incubation, the media was aspirated and the cells lysed with 200 μl lysis buffer (Amersham Biosciences; Piscataway, N.J.). Plates were stored at −20° C. for up to 24 hours prior to assay. Intracellular cAMP was determined using the Biotrak cAMP enzyme immunoassay system (Amersham Biosciences) according to the manufacturer's instructions. Plates were read on a plate reader at 450 nm.

[4] = target: T3, hamster α-1B adrenergic receptor (Mesocricetus auratus, UniProt P18841); format: cell-based; details: for hamster α1B % E: percent efficacy relative to phenylephrine
T3 sequence (P18841 1-515): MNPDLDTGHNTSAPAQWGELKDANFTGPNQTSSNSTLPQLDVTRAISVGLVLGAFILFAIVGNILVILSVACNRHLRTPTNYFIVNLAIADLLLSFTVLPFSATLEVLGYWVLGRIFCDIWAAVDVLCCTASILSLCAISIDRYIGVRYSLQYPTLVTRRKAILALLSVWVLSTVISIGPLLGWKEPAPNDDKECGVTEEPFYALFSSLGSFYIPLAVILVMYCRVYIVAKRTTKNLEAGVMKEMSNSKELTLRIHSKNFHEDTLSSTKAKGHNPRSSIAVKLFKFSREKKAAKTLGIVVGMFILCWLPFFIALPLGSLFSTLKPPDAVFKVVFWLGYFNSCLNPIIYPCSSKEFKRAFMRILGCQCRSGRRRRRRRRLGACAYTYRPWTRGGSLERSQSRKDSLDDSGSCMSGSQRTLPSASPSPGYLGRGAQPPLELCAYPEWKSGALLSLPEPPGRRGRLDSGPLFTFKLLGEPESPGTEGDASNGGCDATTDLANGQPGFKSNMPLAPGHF
Procedure: as §3, §4

[5] = target: T4, human α-2A receptor (Homo sapiens, UniProt P08913); details: percent efficacy relative to brimonidine
T4 sequence (P08913 1-465): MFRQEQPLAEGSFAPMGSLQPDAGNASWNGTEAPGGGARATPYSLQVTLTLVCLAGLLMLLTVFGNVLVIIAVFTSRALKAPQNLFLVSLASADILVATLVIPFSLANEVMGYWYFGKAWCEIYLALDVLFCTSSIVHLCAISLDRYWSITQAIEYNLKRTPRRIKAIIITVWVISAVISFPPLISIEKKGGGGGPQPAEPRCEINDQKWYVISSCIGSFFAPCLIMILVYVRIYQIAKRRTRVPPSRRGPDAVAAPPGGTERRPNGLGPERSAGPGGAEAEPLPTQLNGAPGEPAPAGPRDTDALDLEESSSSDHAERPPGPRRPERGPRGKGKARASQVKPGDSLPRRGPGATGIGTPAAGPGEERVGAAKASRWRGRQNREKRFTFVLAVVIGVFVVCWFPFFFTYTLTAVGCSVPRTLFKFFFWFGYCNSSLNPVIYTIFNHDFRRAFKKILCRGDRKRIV
Procedure: as §5, §6

[6] = tested on: mice; assay: Phenylephrine-induced tactile hypersensitivity in mice; format: in vivo, mouse; details: for tactile (mechanical) hypersensitivity score: Phenylephrine (100 ng/kg I.P.), cumulative score 0 to 16, mean ± SEM
Procedure: To dissect the contribution of the sympathetic nervous system to sensory sensitization, mouse models having different mechanisms of sensory sensitization were developed. Tactile hypersensitivity was measured in mice following intrathecal or intraperitoneal injection of an inducing agent by scoring the response to light stroking of the mouse flank with a paintbrush.
Spinal drug injections were performed as follows. Mice (20-30 g) were injected intrathecally as described in Hylden and Wilcox, Eur. J. Pharmacol. 67:313-316 (1980). Briefly, a sterile 30-gauge ½ inch needle attached to a microsyringe was inserted between the L5 and L6 vertebrae. The mouse was held firmly by the pelvic girdle in one hand, while the syringe was held in the other hand at an angle of approximately 20° above the vertebral column. The needle was inserted into the tissue to one side of the L6 spinous process, into the groove between the spinous and transverse processes. The needle angle was decreased to about 10°, and the needle slowly advanced forward into the intervertebral space until a pop was felt and there was a visible serpentine tail movement. Compounds were slowly injected in the subarachnoid space in a volume of 5 μl. Each compound was tested at multiple doses. The minimal efficacious dose was used for all subsequent experiments.
Sensitivity to light touch was quantified by scoring the response of mice to light stroking of their flanks with a small paintbrush, which is not normally painful. […] The scores were summed to generate a cumulative score of 0 to 16 as described in Minami et al., Pain 57:217-223 (1994). Statistical calculations of significance for in vivo studies were done using a two-tailed Students t-test.

[7] = tested on: mice; assay: NMDA-induced tactile hypersensitivity in mice; format: in vivo, mouse; details: for tactile (mechanical) hypersensitivity score: NMDA (100 ng IT), cumulative score 0 to 16, mean ± SEM; for inhibition of NMDA-induced tactile hypersensitivity: result in words
Procedure: as §1, §2

COc1cc2nc(N3CCN(C(=O)c4ccco4)CC3)nc(N)c2cc1OC [Prazosin]
analgesic activity in sulprostone-induced tactile hypersensitivity ([1]; wildtype mice): no analgesic activity
analgesic activity in sulprostone-induced tactile hypersensitivity ([1]; α-2C knockout mice): no analgesic activity

Clc1ccc2nsnc2c1NC1=NCCN1 [Tizanidine]
bovine α1A % E [2]: 63%
agonist activity at the α-1A receptor ([2]; result in words): partial agonists
human α2C % E [3]: 85%
hamster α1B % E [4]: 61%
agonist activity at the α-1B receptor ([4]; result in words): partial agonists
human α2A % E [5]: 93%

CCN(Cc1cc(Br)ccc1OCc1ccccc1)c1ccc(C(=O)O)cn1 [EP1 antagonist]
tactile (mechanical) hypersensitivity score [1]: 4.0 ± 1.2
analgesic activity in sulprostone-induced tactile hypersensitivity ([1]; wildtype mice): completely blocked
tactile (mechanical) hypersensitivity score [6]: 9.8 ± 0.7
tactile (mechanical) hypersensitivity score [7]: 11.4 ± 1.53

CC12CC3CC(C)(C1)CC(N)(C3)C2.Cl [Memantine, 1-amino-3,5-dimethyladamantane hydrochloride]
tactile (mechanical) hypersensitivity score [1]: 14.3 ± 0.8
tactile (mechanical) hypersensitivity score [6]: 11.0 ± 0.7
tactile (mechanical) hypersensitivity score [7]: 4.2 ± 0.9
inhibition of NMDA-induced tactile hypersensitivity ([7]; wildtype mice): blocked

CNC[C@H](O)c1cccc(O)c1 [Phenylephrine]
bovine α1A % E [2]: 110%
human α2C % E [3]: 87%
hamster α1B % E [4]: 110%
strongly tactile hypersensitivity-inducing dose ([6]; i.p., wildtype mice): 0.03 µg/kg
dose resulting in maximal hypersensitivity ([6]; i.p., α-2A knockout mice): 0.0003 µg/kg
dose resulting in maximal hypersensitivity ([6]; i.p., α-2C knockout mice): 0.0001 µg/kg
dose at which significant tactile hypersensitivity starts ([6]; intraperitoneal, wildtype mice): 0.003 µg/kg
dose at which significant tactile hypersensitivity starts ([6]; intrathecal, wildtype mice): 3 ng

COc1ccccc1N1CCN(CCCNc2c(C)c(=O)n(C)c(=O)n2C)CC1 [5-MU, 5-methyl urapidil]
tactile (mechanical) hypersensitivity score [1]: 12.0 ± 1.0
tactile (mechanical) hypersensitivity score [6]: 5.0 ± 1.0
inhibition of phenylephrine-induced tactile hypersensitivity ([6]; wildtype mice, result in words): block the hypersensitive response
tactile (mechanical) hypersensitivity score [7]: 13.3 ± 0.8

CN[C@H](CC(=O)O)C(=O)O [NMDA]
dose of maximal tactile hypersensitivity effect ([7]; intrathecal, wildtype mice): 100 ng

CS(=O)(=O)NC(=O)CCC/C=C\C[C@H]1C(=O)C[C@@H](O)[C@@H]1/C=C/[C@@H](O)COc1ccccc1 [Sulprostone]
maximal dose for tactile hypersensitivity ([1]; intrathecal, wild-type and α-2C knockout mice): 200 ng
maximally effective dose for tactile hypersensitivity ([1]; intrathecal, α-2A knockout mice): 30 ng

NCC1(CC(=O)O)CCCCC1 [Gabapentin]
tactile (mechanical) hypersensitivity score [1]: 3.2 ± 0.5
analgesic activity in sulprostone-induced tactile hypersensitivity ([1]; wildtype mice): inhibited tactile hypersensitivity
tactile (mechanical) hypersensitivity score [6]: 13.0
tactile (mechanical) hypersensitivity score [7]: 3.7 ± 0.8
inhibition of NMDA-induced tactile hypersensitivity ([7]; wildtype mice): inhibited tactile hypersensitivity
